Series [1] addresses human recombinant HDAC3/NcoR2 (Homo sapiens, UniProt O15379). The series can be described thus: Inhibition assay HDAC3 (fluorogenic substrate ZMAL). Format: biochemical. As to conditions: HDAC1 over HDAC3, from IC50 values. Here is the method: In vitro inhibitory activities against HDAC1−3 and HDAC6 were measured as previously published with minor modifications. […] Subsequently, 50 µL trypsin solution (0.4 mg/mL trypsin in buffer: 50 mM Tris−HCl, pH = 8.0, 100 mM NaCl) was added, followed by additional 30 min of incubation at 37 °C. […] All compounds were tested at least twice in duplicates.

Series [2] can be described thus: Whole-body biodistribution derived from PET imaging. The series is classed as in vivo. As for the experimental part: For the time of the experiments, female CD-1 mice (n = 6; 8–15 weeks; 29–43 g) were kept in a dedicated climatic chamber with free access to water and food under a 12:12 h dark:light cycle at a constant temperature (24 °C). The animals were anaesthetized (Anaesthesia Unit U-410, agntho’s, Lidingö, Sweden) with isoflurane (2.0%, 300 mL/min) delivered in a 60% oxygen/40% air mixture (Gas Blender 100 Series, MCQ instruments, Rome, Italy) and their body temperature maintained at 37 °C with a thermal bed system. For baseline studies [^18F]BA3 was injected into the tail vein (n = 2; 6.0 ± 0.6 MBq in 150 µL isotonic saline; 9.2 ± 0.7 nmol/kg; Am: 21 GBq/μmol, EOS) followed by a dynamic 60 min PET/MR scan (Mediso nanoScan®, Budapest, Hungary). Permeability-glycoprotein efflux transporter studies consisted in pre-treatment via i.v. injection of cyclosporine A (50 mg/kg in NaCl/DMSO/kolliphor, 7:1:2, v/v; n = 2) or of vehicle (NaCl/DMSO/kolliphor, 7:1:2, v/v; n = 2) 30 min prior to [^18F]BA3 (6.0 ± 0.9 MBq; 4.9 ± 0.7 nmol/kg; Am: 32–37 GBq/μmol, EOS). Each PET image was corrected for random coincidences, dead time, scatter and attenuation (AC), based on a whole body (WB) MR scan. The reconstruction parameters for the list mode data were 3D-ordered subset expectation maximization (OSEM), 4 iterations, 6 subsets, energy window: 400–600 keV, coincidence mode: 1–5, ring difference: 81. The mice were positioned prone in a special mouse bed (heated up to 37 °C), with the head fixed to a mouth piece for the anaesthetic gas supply with isoflurane in 40% air and 60% oxygen. The PET data were collected by a continuous WB scan during the entire investigation. Following the 60 min PET scan a T1 weighted WB gradient echo sequence (TR/TE: 20/6.4 ms, NEX: 1, FA: 25, FOV: 64 × 64 mm, Matrix: 128 × 128, STh: 0.5 mm) was performed for AC and anatomical orientation. […]. The respective brain regions were identified using the mouse brain atlas template Ma-Benveniste-Mirrione-FDG. The activity data are expressed as mean SUV of the overall ROI.

human recombinant HDAC3/NcoR2, sequence (O15379 whole entry): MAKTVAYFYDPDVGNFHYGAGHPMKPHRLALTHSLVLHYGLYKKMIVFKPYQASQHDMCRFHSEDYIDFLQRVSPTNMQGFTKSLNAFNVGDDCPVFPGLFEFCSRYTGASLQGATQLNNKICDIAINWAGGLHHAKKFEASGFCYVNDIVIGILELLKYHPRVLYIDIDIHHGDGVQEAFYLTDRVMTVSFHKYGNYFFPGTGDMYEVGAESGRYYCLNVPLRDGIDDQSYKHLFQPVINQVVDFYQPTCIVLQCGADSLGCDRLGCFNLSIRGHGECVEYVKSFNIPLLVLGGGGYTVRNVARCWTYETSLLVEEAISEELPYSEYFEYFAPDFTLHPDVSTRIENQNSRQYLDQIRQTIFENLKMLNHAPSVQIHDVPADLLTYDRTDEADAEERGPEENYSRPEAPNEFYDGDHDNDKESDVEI
human recombinant HDAC3/NcoR2, sequence (Q9Y618 395-489 partner limits assumed): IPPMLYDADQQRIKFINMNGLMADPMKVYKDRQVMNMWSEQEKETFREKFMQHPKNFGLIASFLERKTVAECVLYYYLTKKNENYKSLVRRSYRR

Regarding `CC([18F])C(=O)NCc1ccc(C(=O)Nc2cc(-c3ccsc3)ccc2N)cc1` (stereo not shown) [[^18F]BA3], the “specificity ratio (HDAC1/HDAC3)” value in series [1] is > 230. In series [2] (blood, 5 min), the “activity in blood circulation SUV5 min” value worked out at 1.47 SUV. In addition, the “activity in blood circulation SUV60 min” value in series [2] (blood, 60 min) is given as 1.10 SUV. Also, the “initial uptake SUV5 min” value in series [2] (spleen, kidney, muscle, liver and small intestines, 5 min) is recorded as < 4 SUV.

These data come from publication PMC8950173 (Pharmaceuticals, 2022).
